Results from patent publication EP0908457B1, “3-(1,2-benzisothiazol- and isoxazol-5-Y1)-2,4(1H,3H)-pyrimidinedione or thione and 3-(1,2-benzisothiazol- and isoxazol-5-y1)-4(3H)-pyrimidinone or thione herbicidal agents” (BASF AKTIENGESELLSCHAFT, priority 1997, dated 1999).

Key:
Cyperus iria = test: Preemergence weed control under flooded paddy conditions, CYPIR (Rice Flatsedge); type: in vivo; conditions: flooded paddy, rated three to four weeks after treatment; note: meaning of each grade not given here
[1] = tested on: Echinochloa oryzoides (Ard.) Fritsch.; test: Preemergence weed control under flooded paddy conditions, ECHORC (Watergrass (Calif.)); type: in vivo; conditions: flooded paddy, rated three to four weeks after treatment; note: meaning of each grade not given here
[2] = tested on: Monochoria vaginalis, Presl.; test: Preemergence weed control under flooded paddy conditions, MOOVA (Monochoria); type: in vivo; conditions: flooded paddy, rated three to four weeks after treatment; note: meaning of each grade not given here
[3] = tested on: Cyperus serotinus, Rottb.; test: Preemergence weed control under flooded paddy conditions, CYPSE (Flatsedge); type: in vivo; conditions: rated three to four weeks after treatment; note: meaning of each grade not given here
Sagittaria pygmaea, L. = test: Preemergence weed control under flooded paddy conditions, SAGPY (Arrowhead (Pygmaea)); type: in vivo; conditions: flooded paddy, rated three to four weeks after treatment; note: meaning of each grade not given here
[4] = tested on: Oryza sativa, (L.) Tebonnet; test: Rice tolerance to post-transplant applications under flooded paddy conditions (Example 187), ORYSAT (Rice, Tebonnet); conditions: rated three to four weeks after treatment
[5] = 0.0313 kg/ha, preemergence weeds
[6] = 0.0625 kg/ha, preemergence weeds
[7] = 0.1250 kg/ha, preemergence weeds
[8] = 0.2500 kg/ha, preemergence weeds

| SMILES | herbicidal effect rating, ORYSAT (rice tolerance) ([4]; 0.0313 kg/ha) | herbicidal effect rating, ORYSAT (rice tolerance) ([4]; 0.0625 kg/ha) | herbicidal effect rating, ORYSAT (rice tolerance) ([4]; 0.1250 kg/ha) | herbicidal effect rating, ORYSAT (rice tolerance) ([4]; 0.2500 kg/ha) | herbicidal effect rating, CYPIR (Cyperus iria; [5]) | herbicidal effect rating, CYPIR (Cyperus iria; [6]) | herbicidal effect rating, CYPIR (Cyperus iria; [7]) | herbicidal effect rating, CYPIR (Cyperus iria; [8]) | herbicidal effect rating, ECHORC [1, 5] | herbicidal effect rating, ECHORC [1, 6] | herbicidal effect rating, ECHORC [1, 7] | herbicidal effect rating, ECHORC [1, 8] | herbicidal effect rating, MOOVA [2, 5] | herbicidal effect rating, MOOVA [2, 6] | herbicidal effect rating, MOOVA [2, 7] | herbicidal effect rating, MOOVA [2, 8] | herbicidal effect rating, CYPSE [3, 5] | herbicidal effect rating, CYPSE [3, 6] | herbicidal effect rating, CYPSE [3, 7] | herbicidal effect rating, CYPSE [3, 8] | also measured |
| --- | --- | --- | --- | --- | --- | --- | --- | --- | --- | --- | --- | --- | --- | --- | --- | --- | --- | --- | --- | --- | --- |
| Cc1ccc(OCC(=O)OCC#Cc2ccccc2)c(-c2nsc3ccc(-n4c(=O)cc(C(F)(F)F)n(C)c4=O)cc23)c1 [Example 73, 3-Phenyl-2-propynyl {{2-{5-[3,6-dihydro-3-methyl-2,6-dioxo-4-(trifluoromethyl)-1(2H)-pyrimidinyl]-1,2-benzisothiazol-3-yl}-p-tolyl}oxy}acetate] | 2.5 | 3.0 | 4.0 | 6.0 | – | – | – | – | – | – | – | – | – | – | – | – | – | – | – | – | herbicidal effect rating, CYPIR (Cyperus iria; 0.0313 kg/ha, preemergence): 2.0; herbicidal effect rating, CYPIR (Cyperus iria; 0.0625 kg/ha, preemergence): 6.0; herbicidal effect rating, CYPIR (Cyperus iria; 0.1250 kg/ha, preemergence): 8.0; herbicidal effect rating, CYPIR (Cyperus iria; 0.2500 kg/ha, preemergence): 8.0; herbicidal effect rating, ECHORC ([1]; 0.0313 kg/ha, preemergence): 8.0; herbicidal effect rating, ECHORC ([1]; 0.0625 kg/ha, preemergence): 6.5; herbicidal effect rating, ECHORC ([1]; 0.1250 kg/ha, preemergence): 9.0; herbicidal effect rating, ECHORC ([1]; 0.2500 kg/ha, preemergence): 9.0; herbicidal effect rating, MOOVA ([2]; 0.0313 kg/ha, preemergence): 9.0; herbicidal effect rating, MOOVA ([2]; 0.0625 kg/ha, preemergence): 9.0; herbicidal effect rating, MOOVA ([2]; 0.1250 kg/ha, preemergence): 9.0; herbicidal effect rating, MOOVA ([2]; 0.2500 kg/ha, preemergence): 9.0; herbicidal effect rating, CYPSE ([3]; 0.0313 kg/ha, preemergence): 0.0; herbicidal effect rating, CYPSE ([3]; 0.0625 kg/ha, preemergence): 0.0; herbicidal effect rating, CYPSE ([3]; 0.1250 kg/ha, preemergence): 2.0; herbicidal effect rating, CYPSE ([3]; 0.2500 kg/ha, preemergence): 9.0; herbicidal effect rating, SAGPY (Sagittaria pygmaea, L.; 0.0313 kg/ha, preemergence): 0.0; herbicidal effect rating, SAGPY (Sagittaria pygmaea, L.; 0.0625 kg/ha, preemergence): 0.0; herbicidal effect rating, SAGPY (Sagittaria pygmaea, L.; 0.1250 kg/ha, preemergence): 0.0; herbicidal effect rating, SAGPY (Sagittaria pygmaea, L.; 0.2500 kg/ha, preemergence): 2.0 |
| Cn1c(C(F)(F)F)cc(=O)n(-c2ccc3snc(C(Cl)Cl)c3c2)c1=O [Example 114, 3-[3-(Dichloromethyl)-1,2-benzisothiazol-5-yl]-1-methyl-6-(trifluoromethyl)-2,4(1H,3H)-pyrimidinedione] | 4.0 | 6.0 | 7.0 | 7.0 | 9.0 | 9.0 | 9.0 | 9.0 | 0.0 | 0.0 | 4.0 | 6.0 | 9.0 | 9.0 | 9.0 | 8.0 | 0.0 | 0.0 | 2.0 | 6.0 | herbicidal effect rating, SAGPY (Sagittaria pygmaea, L.; [5]): 0.0; herbicidal effect rating, SAGPY (Sagittaria pygmaea, L.; [6]): 2.0; herbicidal effect rating, SAGPY (Sagittaria pygmaea, L.; [7]): 6.0; herbicidal effect rating, SAGPY (Sagittaria pygmaea, L.; [8]): 6.0 |
| Cn1c(C(F)(F)F)cc(=O)n(-c2ccc3snc(N4CCOCC4)c3c2)c1=O [Example 116, 1-Methyl-3-(3-morpholino-1,2-benzisothiazol-5-yl)-6-(trifluoromethyl)-2,4(1H,3H)-pyrimidinedione] | 0.0 | 0.0 | 0.0 | 0.0 | 0.0 | 0.0 | 0.0 | 0.0 | 0.0 | 0.0 | 0.0 | 0.0 | 0.0 | 2.0 | 8.0 | 8.0 | 0.0 | 0.0 | 0.0 | 0.0 | herbicidal effect rating, SAGPY (Sagittaria pygmaea, L.; [5]): 0.0; herbicidal effect rating, SAGPY (Sagittaria pygmaea, L.; [6]): 0.0; herbicidal effect rating, SAGPY (Sagittaria pygmaea, L.; [7]): 0.0; herbicidal effect rating, SAGPY (Sagittaria pygmaea, L.; [8]): 0.0 |
| Cn1c(C(F)(F)F)cc(=O)n(-c2ccc3snc(NS(C)(=O)=O)c3c2)c1=O [Example 117, N-{5-[3,6-Dihydro-3-methyl-2,6-dioxo-4-(trifluoromethyl)-1(2H)-pyrimidinyl]-1,2-benzisothiazol-3-yl}methanesulfonamide] | 0.0 | 0.0 | 0.0 | 0.0 | 0.0 | 0.0 | 0.0 | 0.0 | 0.0 | 0.0 | 0.0 | 0.0 | 0.0 | 0.0 | 2.0 | 4.0 | 0.0 | 0.0 | 0.0 | 0.0 | herbicidal effect rating, SAGPY (Sagittaria pygmaea, L.; [5]): 0.0; herbicidal effect rating, SAGPY (Sagittaria pygmaea, L.; [6]): 0.0; herbicidal effect rating, SAGPY (Sagittaria pygmaea, L.; [7]): 0.0; herbicidal effect rating, SAGPY (Sagittaria pygmaea, L.; [8]): 0.0 |
| CCN(CC)c1nsc2ccc(-n3c(=O)cc(C(F)(F)F)n(C)c3=O)cc12 [Example 118, 3-[3-(Diethylamino)-1,2-benzisothiazol-5-yl]-1-methyl-6-(trifluoromethyl)-2,4(1H,3H)-pyrimidinedione] | 0.0 | 0.0 | 0.0 | 0.0 | 0.0 | 0.0 | 0.0 | 0.0 | 0.0 | 0.0 | 0.0 | 0.0 | 0.0 | 0.0 | 0.0 | 0.0 | 0.0 | 0.0 | 0.0 | 0.0 | herbicidal effect rating, SAGPY (Sagittaria pygmaea, L.; [5]): 0.0; herbicidal effect rating, SAGPY (Sagittaria pygmaea, L.; [6]): 0.0; herbicidal effect rating, SAGPY (Sagittaria pygmaea, L.; [7]): 0.0; herbicidal effect rating, SAGPY (Sagittaria pygmaea, L.; [8]): 0.0 |
| CCc1nsc2ccc(-n3c(=O)cc(C(F)(F)F)n(C)c3=O)cc12 [Example 119, 3-(3-Ethyl-1,2-benzisothiazol-5-yl)-1-methyl-6-(trifluoromethyl)-2,4(1H,3H)-pyrimidinedione] | 7.0 | 8.0 | 9.0 | 9.0 | 9.0 | 9.0 | 9.0 | 9.0 | 4.0 | 9.0 | 9.0 | 9.0 | 9.0 | 9.0 | 9.0 | 9.0 | 2.0 | 4.0 | 8.0 | 9.0 | herbicidal effect rating, SAGPY (Sagittaria pygmaea, L.; [5]): 6.0; herbicidal effect rating, SAGPY (Sagittaria pygmaea, L.; [6]): 8.0; herbicidal effect rating, SAGPY (Sagittaria pygmaea, L.; [7]): 8.0; herbicidal effect rating, SAGPY (Sagittaria pygmaea, L.; [8]): 9.0 |
| Cc1ccc(OCC(=O)NS(C)(=O)=O)c(-c2nsc3ccc(-n4c(=O)cc(C(F)(F)F)n(C)c4=O)cc23)c1 [Example 121, N-{{{2-{5-[3,6-Dihydro-3-methyl-2,6-dioxo-4-(trifluoromethyl)-1(2H)-pyrimidinyl]-1,2-benzisothiazol-3-yl}-p-tolyl}oxy}acetyl}methanesulfonamide] | 3.0 | 4.0 | 6.0 | 9.0 | 0.0 | 0.0 | 2.0 | 4.0 | 6.0 | 7.0 | 8.0 | 9.0 | 9.0 | 9.0 | 9.0 | 9.0 | 0.0 | 0.0 | 2.0 | 4.0 | herbicidal effect rating, SAGPY (Sagittaria pygmaea, L.; [5]): 0.0; herbicidal effect rating, SAGPY (Sagittaria pygmaea, L.; [6]): 0.0; herbicidal effect rating, SAGPY (Sagittaria pygmaea, L.; [7]): 0.0; herbicidal effect rating, SAGPY (Sagittaria pygmaea, L.; [8]): 0.0 |
